Where two headings read alike, the source gives them in different places.

This note sets out measurements from US11691972B2, “Compounds for targeted degradation of BRD9” (C4 Therapeutics, Inc., priority 2020, dated 2023).

The target of the test is T1, BRD9 (Homo sapiens, UniProt Q9H8M2).
T1 sequence (Q9H8M2 1-597): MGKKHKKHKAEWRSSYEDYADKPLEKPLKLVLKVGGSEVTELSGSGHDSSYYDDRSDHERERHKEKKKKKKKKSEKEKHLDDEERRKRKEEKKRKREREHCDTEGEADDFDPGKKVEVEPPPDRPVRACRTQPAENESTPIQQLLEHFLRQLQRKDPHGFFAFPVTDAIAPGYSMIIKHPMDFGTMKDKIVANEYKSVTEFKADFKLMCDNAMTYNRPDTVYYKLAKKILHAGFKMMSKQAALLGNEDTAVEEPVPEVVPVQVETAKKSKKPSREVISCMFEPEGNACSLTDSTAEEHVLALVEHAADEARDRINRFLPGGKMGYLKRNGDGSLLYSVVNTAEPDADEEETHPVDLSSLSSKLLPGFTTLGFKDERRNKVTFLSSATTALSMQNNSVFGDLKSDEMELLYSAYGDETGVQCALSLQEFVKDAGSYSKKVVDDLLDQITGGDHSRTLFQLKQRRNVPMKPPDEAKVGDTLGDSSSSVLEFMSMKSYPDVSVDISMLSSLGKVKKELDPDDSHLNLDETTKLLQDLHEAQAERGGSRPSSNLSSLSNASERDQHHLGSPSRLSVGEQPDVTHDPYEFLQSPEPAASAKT
Briefly: HiBiT BRD9 degradation assay in 293T.166 (BRD9-HiBiT) cells. As to conditions: 293T.166 cells, 2.0 hours, class symbols, read-out: HiBiT-Degradation 293T.166 BRD9 2.0 hours (DC50). Also on record: endogenously expressing BRD9 with HiBiT fusion tag via CRISPR; host or cells: 293T.166 (BRD9-HiBiT), also expressing LgBiT ectopically. Format: cell-based. The procedure:
Selected compounds were tested in a BRD9 degradation assay using the HiBit Method.
Dulbecco's modified Eagle medium (DMEM) without phenol red and fetal bovine serum (FBS) were purchased from Gibco (Grand Island, N.Y., USA). Nano-Glo® HiBiT Lytic Assay System was purchased from Promega (Madison, Wis., USA). 293T.166 (BRD9-HiBiT) cell line, endogenously expressing BRD9 with HiBiT fusion tag via CRISPR and ectopically expressing LgBiT tag, was purchased from Promega (Madison, Wis., USA). 293T.167 (BRD7-HiBiT) cell line, endogenously expressing BRD7 with HiBiT fusion tag via CRISPR and ectopically expressing LgBiT tag, was purchased from Promega (Madison, Wis., USA). 293T.92 (BRD4-HiBiT) cell line, endogenously expressing BRD4 with HiBiT fusion tag via CRISPR and ectopically expressing LgBiT tag, was generated in-house. Cell culture flasks and 384-well microplates were acquired from VWR (Radnor, Pa., USA).
BRD9 degradation was determined based on quantification of luminescent signal using Nano-Glo® HiBiT Lytic Assay kit. Test compounds were added to the 384-well plate from a top concentration of 10 μM with 11 points, half log titration in duplicates. 293T.166 cells were added into 384-well plates at a cell density of 10,000 cells per well. The plates were kept at 37° C. with 5% CO2 for 2 hours. BRD7 and BRD4 degradation was similarly determined with 293T.167 cells and 293T.92 cells, respectively. The cells treated in the absence of the test compound were the negative control and the cells without Nano-Glo® HiBiT Lytic reagent were the positive control. After 2-hour incubation, Nano-Glo® HiBiT Lytic Assay reagents were added to the cells. Luminescence was acquired on EnVision™ Multilabel Reader (PerkinElmer, Santa Clara, Calif., USA).

For `COc1cc(-c2cn(C)c(=O)c(C)c2C)cc(F)c1CN1CCC(C2CCN(c3ccc(NC4CCC(=O)NC4=O)cc3C(F)(F)F)CC2)CC1` (stereo not shown) [Compound 86], under “Table 1”, the DC50 was below 100 nM.
With `COc1cc(-c2cn(C)c(=O)c(C)c2C)cc(Cl)c1C(=O)N1CCC(C2CCN(c3ccc(NC4CCC(=O)NC4=O)cc3F)CC2)CC1` (stereo not shown) [Compound 208, 3-[4-[4-[1-[2-chloro-6-methoxy-4-(1,4,5-trimethyl-6-oxo-3-pyridyl)benzoyl]-4-piperidyl]-1-piperidyl]-3-fluoro-anilino]piperidine-2,6-dione], the DC50 (Table 1) is below 100 nM.
On the same count and under the same terms, the same measure for `CN(C(=O)N1CCC(c2ccc(NC3CCC(=O)NC3=O)cc2F)CC1)C1CCN(C(=O)c2ccc(-c3cn(C)c(=O)c4cc(F)ccc34)cc2OC(F)(F)F)CC1` (stereo not shown) [Compound 141]: below 100 nM; for `COc1cc(-c2cn(C)c(=O)c3cnccc23)cc(Cl)c1CN1CCC(N(C)C(=O)N2CCC(c3ccc(NC4CCC(=O)NC4=O)cc3)CC2)C(F)(F)C1` (stereo not shown) [Compound 125]: below 100 nM.
Same read-out and setting: the same measure for `COc1cc(-c2cn(C)c(=O)c3cnccc23)cc(F)c1C(=O)N1CCC(N(C)C(=O)N2CCC(c3ccc(NC4CCC(=O)NC4=O)cc3)CC2)CC1` (stereo not shown) [Compound 132]: below 100 nM; for `COc1cc(-c2cn(C)c(=O)c3[nH]ncc23)cc(OC)c1CN1CCc2c(cccc2CN2CCC(c3ccc(NC4CCC(=O)NC4=O)cc3)C(F)(F)C2)C1` (stereo not shown) [Compound 95, 3-[4-[1-[[2-[[2,6-dimethoxy-4-(6-methyl-7-oxo-1H-pyrazolo[3,4-c]pyridin-4-yl)phenyl]methyl]-3,4-dihydro-1H-isoquinolin-5-yl]methyl]-3,3-difluoro-4-piperidyl]anilino]piperidine-2,6-dione]: below 100 nM.
The same measure, in the same setting: as for `COc1cc(-c2cn(C)c(=O)c3cnccc23)cc(Cl)c1CN1CCC(N2CCN(c3ccc(NC4CCC(=O)NC4=O)cc3F)CC2)C(F)(F)C1` (single isomer, unassigned) [Compound 181, 3-[4-[4-[1-[[2-chloro-6-methoxy-4-(2-methyl-1-oxo-2,7-naphthyridin-4-yl)phenyl]methyl]-3,3-difluoro-4-piperidyl]piperazin-1-yl]-3-fluoro-anilino]piperidine-2,6-dione], the figure is below 100 nM; as for `COc1cc(-c2cn(C)c(=O)c3cnccc23)cc(Cl)c1CN1CCC(N2CCN(c3ccc(NC4CCC(=O)NC4=O)cc3F)CC2)C(F)(F)C1` (single isomer, unassigned) [Compound 178, 3-[4-[4-[1-[[2-chloro-6-methoxy-4-(2-methyl-1-oxo-2,7-naphthyridin-4-yl)phenyl]methyl]-3,3-difluoro-4-piperidyl]piperazin-1-yl]-3-fluoro-anilino]piperidine-2,6-dione], below 100 nM; as for `COc1cc(-c2cn(C)c(=O)c3cnccc23)cc(Cl)c1CN1CCC(F)(CCC2CCN(c3ccc(NC4CCC(=O)NC4=O)cc3F)CC2)CC1` (stereo not shown) [Compound 152], below 100 nM.
Turning to `COc1cc(-c2cn(C)c(=O)c3[nH]ncc23)cc(F)c1CN1CCN(C(=O)NC2CCN(c3ccc(NC4CCC(=O)NC4=O)cc3)CC2)CC1` (stereo not shown) [Compound 145, N-[1-[4-[(2,6-dioxo-3-piperidyl)amino]phenyl]-4-piperidyl]-4-[[2-fluoro-6-methoxy-4-(6-methyl-7-oxo-1H-pyrazolo[3,4-c]pyridin-4-yl)phenyl]methyl]piperazine-1-carboxamide], the DC50 (Table 1) was below 100 nM.
As for `COc1cc(-c2cn(C)c(=O)c(C)c2C)cc(Cl)c1CN1CCC(C2CCN(c3ccc(NC4CCC(=O)NC4=O)cc3F)CC2)C(F)(F)C1` (single isomer, unassigned) [Compound 257], for the setting “Table 2”, the DC50 is below 100 nM.
As for `COc1cc(-c2cn(C)c(=O)c3[nH]ncc23)cc(F)c1CN1CCN(C(=O)Cc2c(F)cc(NC3CCC(=O)NC3=O)cc2F)CC1` (stereo not shown) [Compound 164, 3-[3,5-difluoro-4-[2-[4-[[2-fluoro-6-methoxy-4-(6-methyl-7-oxo-1H-pyrazolo[3,4-c]pyridin-4-yl)phenyl]methyl]piperazin-1-yl]-2-oxo-ethyl]anilino]piperidine-2,6-dione], the DC50 (Table 1) lay in the range of 100 to 500 nM.
With `COc1cc(-c2cn(C)c(=O)c(C)c2C)cc(Cl)c1C(=O)N1CCC(N(C)C(=O)N2CCC(c3ccc(NC4CCC(=O)NC4=O)cc3)CC2)CC1` (stereo not shown) [Compound 133], the DC50 (Table 1) is below 100 nM.
Same read-out and setting: the same measure for `COc1cc(-c2cn(C)c(=O)c3[nH]ncc23)cc(F)c1C(=O)N1CCC(N(C)C(=O)N2CCC(c3ccc(NC4CCC(=O)NC4=O)cc3)CC2)CC1` (stereo not shown) [Compound 134]: below 100 nM; for `COc1cc(-c2cn(C)c(=O)c3[nH]ncc23)cc(Cl)c1C(=O)N1CCc2c(CC3CCN(c4ccc(NC5CCC(=O)NC5=O)cc4F)CC3)ccc(F)c2C1` (stereo not shown) [Compound 240]: below 100 nM.
Same read-out and setting: as for `COc1cc(-c2cn(C)c(=O)c3cnccc23)cc(F)c1CC1CCN(C(=O)CC2CCN(c3ccc(NC4CCC(=O)NC4=O)cc3F)CC2)CC1` (stereo not shown) [Compound 158, 3-[3-fluoro-4-[4-[2-[4-[[2-fluoro-6-methoxy-4-(2-methyl-1-oxo-2,7-naphthyridin-4-yl)phenyl]methyl]-1-piperidyl]-2-oxo-ethyl]-1-piperidyl]anilino]piperidine-2,6-dione], the figure is below 100 nM; as for `Cn1cc(-c2cc(Cl)c(C(=O)N3CCN(C(=O)CN4CCC(c5ccc(NC6CCC(=O)NC6=O)cc5)CC4)CC3)cc2Cl)c2cn[nH]c2c1=O` (stereo not shown) [Compound 48], 100 to 500 nM.
Still for that read-out and setting: as for `CN(C(=O)N1CCC(c2ccc(NC3CCC(=O)NC3=O)cc2)CC1)C1CCN(C(=O)c2ccc(-c3cn(C)c(=O)c4ccc(F)cc34)cc2OC(F)(F)F)CC1` (stereo not shown) [Compound 128], the figure is below 100 nM; as for `CN(C(=O)N1CCC(c2ccc(NC3CCC(=O)NC3=O)cc2)CC1)C1CCN(C(=O)c2ccc(-c3cn(C)c(=O)c4ccccc34)cc2OC(F)(F)F)CC1` (stereo not shown) [Compound 127], below 100 nM.
For the compound `COc1cc(-c2cn(C)c(=O)c(C)c2C)cc(Cl)c1CN1CCC(N2CCN(c3ccc(N(C)C4CCC(=O)NC4=O)cc3F)CC2)C(F)(F)C1` (stereo not shown) [Compound 248], the DC50 (Table 2) was below 100 nM.
Turning to `COc1cc(-c2cn(C)c(=O)c3[nH]ncc23)cc(F)c1CN1CCC(N(C)C(=O)N2CCC(c3ccc(NC4CCC(=O)NC4=O)cc3)CC2)CC1` (stereo not shown) [Compound 112, 4-[4[(2,6-dioxo-3-piperidyl)amino]phenyl]-N-[1-[[2-fluoro-6-methoxy-4-(6-methyl-7-oxo-1H-pyrazolo[3,4-c]pyridin-4-yl)phenyl]methyl]-4-piperidyl]-N-methyl-piperidine-1-carboxamide], the DC50 (Table 1) is below 100 nM.
Take `COc1cc(-c2cn(C)c(=O)c3[nH]ncc23)cc(Cl)c1CN1CCN(C(=O)CN2CCC(c3ccc(NC4CCC(=O)NC4=O)cc3)C(F)(F)C2)CC1` (stereo not shown) [Compound 34]: the DC50 (Table 1) is below 100 nM.
For `COc1cc(-c2cn(C)c(=O)c3ccccc23)cnc1CN1CCC(N2CCN(c3ccc(NC4CCC(=O)NC4=O)cc3F)CC2)C(F)(F)C1` (stereo not shown) [Compound 261, 3-[4-[4-[3,3-difluoro-1-[[3-methoxy-5-(2-methyl-1-oxo-4-isoquinolyl)-2-pyridyl]methyl]-4-piperidyl]piperazin-1-yl]-3-fluoro-anilino]piperidine-2,6-dione], the DC50 (Table 2) was below 100 nM.
For the compound `COc1cc(-c2cn(C)c(=O)c3[nH]ncc23)cc(F)c1CN1CCN(C(=O)OC2CCN(c3ccc(NC4CCC(=O)NC4=O)cc3)CC2)CC1` (stereo not shown) [Compound 146, [1-[4-[(2,6-dioxo-3-piperidyl)amino]phenyl]-4-piperidyl] 4-[[2-fluoro-6-methoxy-4-(6-methyl-7-oxo-1H-pyrazolo[3,4-c]pyridin-4-yl)phenyl]methyl]piperazine-1-carboxylate], the DC50 (Table 1) is below 100 nM.
The same measure, in the same setting: the same measure for `COc1cc(-c2cn(C)c(=O)c3[nH]ncc23)cc(Cl)c1C(=O)N1CCC(C2CCN(c3ccc(NC4CCC(=O)NC4=O)cn3)CC2)CC1` (stereo not shown) [Compound 220]: below 100 nM.
